Consider 2 compounds from PMC3091225 (The Journal of Biological Chemistry, 2011).

What all share (test): direct fluorescence titration of TBG into fluorophore
Common to all, as to type: binding

Test [1] has as its target T1, TBG (wild-type, native, intact reactive loop) (Homo sapiens, UniProt P05543).
T1 sequence (P05543 21-415): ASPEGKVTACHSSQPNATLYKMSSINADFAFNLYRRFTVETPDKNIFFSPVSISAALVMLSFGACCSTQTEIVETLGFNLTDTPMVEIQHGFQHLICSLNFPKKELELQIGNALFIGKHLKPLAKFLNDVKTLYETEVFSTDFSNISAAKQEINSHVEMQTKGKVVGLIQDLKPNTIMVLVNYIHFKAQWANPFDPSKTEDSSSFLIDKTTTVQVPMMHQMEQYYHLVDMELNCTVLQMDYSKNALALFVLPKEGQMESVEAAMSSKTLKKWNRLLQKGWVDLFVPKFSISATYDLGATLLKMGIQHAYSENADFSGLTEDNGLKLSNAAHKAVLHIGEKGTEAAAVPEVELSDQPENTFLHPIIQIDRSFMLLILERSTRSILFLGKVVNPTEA

Test [2] has as its target T2, TBG (wild-type, native, intact reactive loop) (Homo sapiens, UniProt P05543, DEL124-126/K123A).
T2 sequence (P05543 with tags, fused parts or gaps K123A/DEL124-126): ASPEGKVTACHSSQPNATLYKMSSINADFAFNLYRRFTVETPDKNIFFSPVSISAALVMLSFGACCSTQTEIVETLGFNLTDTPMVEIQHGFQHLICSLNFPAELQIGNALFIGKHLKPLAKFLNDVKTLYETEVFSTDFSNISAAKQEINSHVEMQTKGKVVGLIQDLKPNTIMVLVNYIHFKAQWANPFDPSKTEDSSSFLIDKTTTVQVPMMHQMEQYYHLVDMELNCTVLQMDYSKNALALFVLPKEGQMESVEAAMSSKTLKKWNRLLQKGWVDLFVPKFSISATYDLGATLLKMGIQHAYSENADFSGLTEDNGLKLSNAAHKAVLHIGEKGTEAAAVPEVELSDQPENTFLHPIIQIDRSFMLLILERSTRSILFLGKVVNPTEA

In test [3] the target is T3, cleaved TBG (wild-type, reactive loop cleaved) (Homo sapiens, UniProt P05543, DEL124-126/K123A).
T3 sequence (P05543 with tags, fused parts or gaps K123A/DEL124-126): T2 sequence (P05543 with tags, fused parts or gaps K123A/DEL124-126)

With `O=C(N[C@@H](Cc1cc(I)c(Oc2cc(I)c(O)c(I)c2)c(I)c1)C(=O)O)c1ccc2c(c1)C(=O)OC21c2ccc(O)cc2Oc2cc(O)ccc21` [T4–5-CF], the Kd in test [1] was less than 0.1 nM.

As to `O=C(N[C@@H](Cc1cc(I)c(Oc2cc(I)c(O)c(I)c2)c(I)c1)C(=O)O)c1ccc2c(c1)C1(OC2=O)c2ccc(O)cc2Oc2cc(O)ccc21` [T4–6-CF], the Kd amounted to 24.9 ± 1.8 nM in test [2] and 50.7 ± 3.6 nM in test [3].
